Assay results from patent US20230055657A1, “COMBINATION TREATMENT OF LIVER DISEASES USING INTEGRIN INHIBITORS” (NOVARTIS AG, priority 2019, published 2023).
Entries after “also recorded” stand apart in the source; their conditions may differ.

Assays:
CDAHFD NASH mouse model = CDAHFD NASH mouse model (prophylactic, therapeutic and 10-week studies); type: in vivo
Description: CDAHFD injury is a rodent model of NASH displaying liver fat accumulation, inflammation, and fibrosis (Matsumoto 2013). Three types of studies were performed: 1) prophylactic, Compound 1 in an abbreviated 3-week CDAHFD model; 2) therapeutic, Compound 1 for 6 weeks in the 11- to 12-week CDAHFD model; and 3) Compound 1 for 4 weeks in a 10-week CDAHFD model.
Compound 1 was tested therapeutically in 11- to 12-week CDAHFD injury studies at medium, high and highest doses across 3 independent studies.
Although pan-αv inhibition with CWHM12 reduced pSMAD and OHP levels, selective αvβ1 inhibition was sufficient for antifibrotic activity.

[1] = tested on: murine CCl4 model of liver fibrosis; test: 3-week murine CCl4 model of liver fibrosis; type: in vivo, mouse
Description: Antifibrotic activity of Compound 1 was established in an abbreviated, 3-week, murine CCl4 model of liver fibrosis. CCl4 is a hepatotoxin that when injected into mice results in liver fibrosis (Constandinou 2003). Compound 1 was dosed during the final week of injury.

healthy volunteers = test: First-in-human study of safety, tolerability, PK and PD; type: in vivo; details: single and multiple ascending dose, thus far
Excerpt: Part A (Single Ascending Dose Study) Part A of the study was a first-in-human, randomized, double-blind, placebo-controlled, parallel-group, single ascending dose study of the safety, tolerability, and PK of Compound 1 in a maximum of 50 healthy male and female (non-childbearing potential) participants. Forty participants will be enrolled in up to 5 sequential cohorts.
Part B (Multiple Ascending Dose Study) Part B of the study is on-going and was initiated after the first 2 cohorts in Part A of the study had been completed. The doses in Part B were determined from Part A of the study and were not higher than the highest dose that was administered in Part A of the study.
Part B of the study is a randomized, double-blind, placebo-controlled, parallel-group, multiple ascending dose study of the PK, PD, safety, and tolerability of Compound 1 administered for 7 days in a maximum of 40 healthy male and female (non-childbearing potential) participants.

[2] = tested on: human cirrhotic NASH precision cut liver slices; test: Profibrotic gene expression and fibrosis biomarkers in precision cut liver slices; type: cell-based
Description: The ability of Compound 1 to inhibit the expression of profibrotic genes and decrease biomarkers of fibrosis was measured in precision cut liver slices generated using cirrhotic liver tissues from NASH patient explants and from rodent models of liver fibrosis and NASH.
Data are mean +/−standard deviation from the 5 cirrhotic NASH patients. DMSO was used as the solvent and utilized at a constant concentration (0.1%) across the different groups. […] was used as a positive control.

[3] = therapeutic, 11- to 12-week, high and highest doses

SMILES	antifibrotic activity (CDAHFD NASH mouse model; NASH (CDAHFD))	expression of Ehhadh (CDAHFD NASH mouse model; prophylactic, 3-week, high dose, both studies)	gene expression of collagens (CDAHFD NASH mouse model; prophylactic, 3-week, high dose, one of the studies)	collagen area (histological analysis) (CDAHFD NASH mouse model; therapeutic, 11- to 12-week)	composite fibrosis score (second harmonic generation imaging): quantity and quality of collagen fibers (CDAHFD NASH mouse model; therapeutic, 11- to 12-week)	gene expression of Acox1 and Ehhadh (CDAHFD NASH mouse model; therapeutic, 11- to 12-week)	collagen gene expression (Col1α1 and Col3α1) (CDAHFD NASH mouse model; [3])	gene expression of profibrotic markers Ctgf, Mmp-2 and Timp1 (CDAHFD NASH mouse model; [3])	hepatic Col1α1, Col1α1, and Col3α1 expression ([1]; all doses)	levels of pSMAD3/SMAD3 in the liver ([1]; all doses, dosed during final week of injury)	antifibrotic activity ([1]; liver fibrosis (CCl4))	tolerability (healthy volunteers)	TIMP1 gene expression (in words) ([2]; 5 cirrhotic NASH patient explants, after two days of treatment)	COL1A1 gene expression (in words) ([2]; fibrotic liver tissue from 5 patients with NASH)	reduction of level of FBN-C in culture media ([2]; significant) [%]	reduction of OHP concentrations (CDAHFD NASH mouse model; 10-week CDAHFD study) [%]	reduction of pSMAD3 levels (CDAHFD NASH mouse model; 10-week CDAHFD study) [%]
CC1(C(=O)N[C@@H](CCCCCCCc2ccc3c(n2)NCCC3)C(=O)O)CCOCC1 [Compound 1, (S)-2-(4-methyltetrahydro-2H-pyran-4-carboxamido)-9-(5,6,7,8-tetrahydro-1,8-naphthyridin-2-yl)nonanoic acid]	effective antifibrotic agent; also recorded: potent and dose-dependent antifibrotic activity	significantly elevated	Significantly reduced	significant reduction	significant reduction	significantly increased	significantly reduced	significantly reduced	significant reduction; also recorded: significantly reduced	significantly reduced	potent and dose-dependent antifibrotic activity	well tolerated	reduced; also recorded: decreased expression; also recorded: reduces expression	decreased expression; also recorded: reduces expression	26	–	–
CC(C)(C)c1cc(Br)cc([C@H](CC(=O)O)NC(=O)CNC(=O)c2cc(O)cc(NC3=NCC(O)CN3)c2)c1 (stereo partly drawn) [CWHM12, (3S)-N-[3-hydroxy-5-[(1,4,5,6-tetrahydro-5-hydroxy-2-pyrimidinyl)amino]benzoyl]glycyl-3-[3-bromo-5-(1,1-dimethylethyl)phenyl]β-alanine, reference compound]	–	–	–	–	–	–	–	–	–	–	–	–	–	–	–	30	61
